Laboratory results as given in patent publication US10683294B2, “5-5 fused rings as C5a inhibitors” (CHEMOCENTRYX, INC., priority 2017, dated 2020).

Biological target: C5aR (Homo sapiens (Human), UniProt P21730)
Assay: Chemotaxis assay (inhibition of C5aR mediated migration towards C5a)
Type: cell-based
Conditions: inhibition in the chemotaxis assay (Example 14 B.3); U937 or neutrophil cells, 0.03 nM C5a
Experimental: U937 cells are a monocytic cell line which express C5aR, and are available from ATCC (VA). These cells were cultured as a suspension in RPMI-1640 medium supplemented with 2 mM L-glutamine, 1.5 g/L sodium bicarbonate, 4.5 g/L glucose, 10 mM HEPES, 1 mM sodium pyruvate, and 10% FBS. Cells were grown under 5% CO2/95% air, 100% humidity at 37° C. and subcultured twice weekly at 1:6 (cells were cultured at a density range of 1×10^5 to 2×10^6 cells/mL) and harvested at 1×10^6 cells/mL. Prior to assay, cells are treated overnight with 0.5 mM of cyclic AMP (Sigma, Ohio) and washed once prior to use. cAMP treated U937 cells can be used in C5aR ligand binding and functional assays.
Optionally, human or murine neutrophils can be used to assay for compound activity. Neutrophils may be isolated from fresh human blood using density separation and centrifigation. Briefly, whole blood is incubated with equal parts 3% dextran and allowed to separate for 45 minutes. After separation, the top layer is layered on top of 15 mls of Ficoll (15 mls of Ficoll for every 30 mls of blood suspension) and centrifuged for 30 minutes at 400×g with no brake. The pellet at the bottom of the tube is then isolated and resuspended into PharmLyse RBC Lysis Buffer (BD Biosciences, San Jose, Calif.) after which the sample is again centrifuged for 10 minutes at 400×g with brake. The remaining cell pellet is resuspended as appropriate and consists of isolated neutrophils.
Optionally, compounds may be further assayed for their ability to inhibit chemotaxis in cells. Chemotaxis assays are performed using 5 μm pore polycarbonate, polyvinylpyrrolidone-coated filters in 96-well chemotaxis chambers (Neuroprobe; Gaithersburg, Md.) using chemotaxis buffer (Hank's balanced salt solution (HBSS) and 1% FBS). C5aR ligands (i.e., C5a, R&D Systems; Minneapolis, Minn.) are use to evaluate compound mediated inhibition of C5aR mediated migration. Other chemokines (i.e., SDF-1α; R&D Systems; Minneapolis, Minn.) are used as specificity controls. The lower chamber is loaded with 29 μl of chemokine (i.e., 0.03 nM C5a) and varying amounts of compound; the top chamber contains 100,000 U937 or neutrophil cells in 20 μl. The chambers are incubated 1.5 hours at 37° C., and the number of cells in the lower chamber quantified either by direct cell counts in five high powered fields per well or by the CyQuant assay (Molecular Probes), a fluorescent dye method that measures nucleic acid content and microscopic observation.

C5aR, sequence (P21730 whole entry): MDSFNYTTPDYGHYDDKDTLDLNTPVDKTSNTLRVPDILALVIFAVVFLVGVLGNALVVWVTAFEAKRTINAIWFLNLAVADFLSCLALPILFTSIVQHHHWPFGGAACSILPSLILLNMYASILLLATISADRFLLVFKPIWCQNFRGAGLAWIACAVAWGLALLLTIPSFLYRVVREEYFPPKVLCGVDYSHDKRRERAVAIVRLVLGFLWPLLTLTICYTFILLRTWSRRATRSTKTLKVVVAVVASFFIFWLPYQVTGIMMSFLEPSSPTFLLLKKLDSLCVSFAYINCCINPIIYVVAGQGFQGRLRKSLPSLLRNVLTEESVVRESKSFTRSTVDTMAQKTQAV

| SMILES | IC50 [nM] |
| --- | --- |
| CCc1cccc(CC)c1-n1nc2c(c1-c1ccc(F)c3[nH]ccc13)CN(C(=O)CNC(=O)OC(C)(C)C)C2(C)C [Compound 1.007] | 50 to 500 |
| Cc1cccc(C)c1-n1nc2c(c1-c1ccc3[nH]ncc3c1)CN(C(=O)OC(C)(C)C)C2 [Compound 1.058] | ≥ 500 |
| CCOC(=O)C(c1ccccc1)N1Cc2c(nn(-c3c(CC)cccc3CC)c2-c2ccc3[nH]ccc3c2)C1(C)C (stereo not drawn) [Compound 1.050] | 5 to 50 |
| CCc1cccc(CC)c1-n1nc2c(c1-c1cccc3[nH]ccc13)CN(C(=O)COc1ccccc1)C2(C)C [Compound 1.041] | 50 to 500 |
| Cc1cccc(C)c1-n1nc2c(c1-c1ccc3[nH]ccc3c1)CN(C(=O)C(C)C1CCCCC1)C2 (stereo not drawn) [Compound 1.060] | 50 to 500 |
| Cc1cccc(C)c1-n1nc2c(c1-c1ccc3[nH]ccc3c1)CN(C(=O)CCC1CCCC1)C2 [Compound 1.056] | ≥ 500 |
| CCc1cccc(CC)c1-n1nc2c(c1-c1cccc3[nH]ccc13)CN(Cc1ccc(C(F)(F)F)cc1C(F)(F)F)C2(C)C [Compound 1.045] | 5 to 50 |

Now from value to compound:

| IC50 [nM] | SMILES |
| --- | --- |
| 5 to 50 | CCc1cccc(CC)c1-n1nc2c(c1-c1ccc(F)c3[nH]cc(Cl)c13)CN(Cc1ccc(Cl)cc1F)C2(C)C [Compound 1.015] |
| 5 to 50 | CCc1cccc(CC)c1-n1nc2c(c1-c1ccc(F)c3[nH]ccc13)CN(C(=O)C(C)(C)C)C2(C)C [Compound 1.033] |
| 5 to 50 | CCc1cccc(CC)c1-n1nc2c(c1-c1cc(F)c3[nH]ccc3c1)CN(Cc1ccc(C(F)(F)F)cc1C(F)(F)F)C2(C)C [Compound 1.027] |
| ≥ 500 | Cc1cccc(C)c1-n1nc2c(c1-c1ccc3[nH]ccc3c1)CN(C(=O)[C@@H](O)C(C)C)C2 [Compound 1.062] |
| ≥ 500 | Cc1cccc(C)c1-n1nc2c(c1-c1ccc3[nH]ccc3c1)CN(C(=O)c1ccccc1)C2 [Compound 1.066] |
